Here are results for 20 molecules from patent US20100087406A1, “INDUCTION OF INNATE IMMUNITY BY VITAMIN D3 AND ITS ANALOGS” (CEDARS-SINAI MEDICAL CENTER, priority 2004, published 2010).

“Also recorded” adds a separate entry of the source. Where two headings read alike, the source gives them in different places.

Experiment [1] deals with LTF (lactoferrin). As to the kind of experiment: Induction of secondary granule gene LTF in U937 cells (RT-PCR). The settings on record: U937, 1×10^−7 M, 24 h.
For experiment [2], the system named is CRAMP. Put plainly: CRAMP in cultured bone marrow cells of C/EBPε-deficient or wild type mice (QRT-PCR). Format: cell-based. How it is done:
Primers against murine CAMP/CRAMP (forward, SEQ ID NO.: 7 and reverse, SEQ ID NO.: 8) (Table 3) were used at 200 nM per reaction.
The relative fold change between samples was determined using data normalized for 18S expression. Samples were analyzed in triplicate.

Experiment [3] has as its system CD11b. Put plainly: Differentiation marker CD11b mRNA in U937 cells (Northern blot). The settings on record: for macrophage-like differentiation (induction of CD11b): U937, 1,25[OH]2D3 1×10^−7 M or TPA 5 ng/ml, 1, 3 or 5 days.
Source text: Total RNA at each time point was isolated and electrophoresed, then transferred to a charged membrane for Northern analysis.
Total RNA was extracted and analyzed by Northern blot.
For experiment [4], the system named is CAMP. Put plainly: Induction of CAMP mRNA expression in NB4 cells (Northern blot).
The test system of experiment [5] is HNP3 (α-defensin). Put plainly: Induction of primary granule gene HNP3 in U937 cells (RT-PCR). The settings on record: U937, 1×10^−7 M, 24 h.
For experiment [6], the system named is CAMP. Put plainly: Induction of CAMP mRNA in keratinocyte cell line HaCat (QRT-PCR). The experiment is classed as cell-based, human. The source says: The X-axis represents (CAMP(ng)/18S(ng)), +/−SD.
In experiment [7] the test system is CAMP. As to the kind of experiment: Induction of CAMP mRNA expression in U937 cells (QRT-PCR, RT-PCR, Northern blot). Format: cell-based, human. The settings on record: for induction of CAMP (hCAP18) mRNA expression by Vitamin D3 analogs: U937, 1×10^−7 M, 12 and 24 hours.
In experiment [8] the test system is CAMP. Put plainly: Induction of CAMP mRNA expression in HL60 cells (Northern blot).
Experiment [9] deals with hCAP18. Conditions: colon epithelial cell lines; cited from earlier work.
Experiment [10] deals with CD11b. As to the kind of experiment: Differentiation marker CD11b mRNA in HL60 cells (Northern blot). The experiment is classed as cell-based, human. The settings on record: HL-60; 1,25[OH]2D3 1×10^−7 M or TPA 5 ng/ml; 1, 3 or 5 days.
For experiment [11], the system named is CRAMP. Put plainly: CRAMP expression in bone marrow of treated BNX mice (Northern blot). Conditions: intraperitoneal, 0.05 μg/mouse every two days for 6 weeks.
For experiment [12], the system named is CAMP. Conditions: cultured keratinocytes or composite keratinocyte grafts; cited from earlier work.
The subject of experiment [13] is CAMP. Conditions: primary human keratinocytes; cited from earlier work.
[14] abbreviates: U937, initial screen, 24 h, QRT-PCR and Northern blot.

With `C=C1/C(=C\C=C2/CCC[C@]3(C)[C@@H]([C@H](C)CCCC(C)(C)O)CC[C@@H]23)C[C@@H](O)C[C@@H]1O` [1,25(OH)2D3, 1,25-dihydroxyvitamin D3], the “induction of LTF” value in experiment [1] was “No induction of these genes was observed”. Besides, the “induction of CRAMP” value in [2] (C/EBPε-deficient or wild type bone marrow cells cultured in vitro, 24 h) is “CRAMP induction was not observed”. Moreover, in [2] (bone marrow cells, 24 h post-treatment (FIG. 14B)), the “decrease of CRAMP” value is recorded as “approximately 2 fold”. Besides, in experiment [3] (U937, 1×10^−7 M, time course 1-24 hours), the “time of induction of the differentiation marker CD11b” value was found to be 12 h. The “macrophage-like differentiation (induction of CD11b)” value in [3] is recorded as “promoted macrophage-like differentiation”. For the same molecule, the “induction of CAMP expression” value is listed as “induction was observed; also recorded: induced expression of CAMP was observed” in experiment [4] (NB4, 1×10^−6 M to 1×10^−9 M, 24 h, Northern blot (FIG. 3)) and “Moderate induction” in experiment [4] (NB4, 1×10^−6 M to 1×10^−9 M, 24 h, Northern blot (FIG. 3), listed as Vitamin D3). Also, the “induction of HNP3” value in experiment [5] is “No induction of these genes was observed”. For the same molecule, in [6], the “induction of CAMP mRNA compared with myeloid cells” value is “not as robust as that observed in the myeloid cells; also recorded: less striking”. For the same molecule, the “induction of CAMP mRNA” value in [6] (1×10^−7 M, 24 hours, QRT-PCR) is on record as “Induction of CAMP mRNA was observed”.
Regarding `CC1=C(/C=C/C(C)=C/C=C/C(C)=C/C(=O)O)C(C)(C)CCC1` [ATRA, all trans retinoic acid], the “induction of CAMP expression” value in [7] (U937, 5×10^−7 M, 1-5 days) is on record as “No induction was observed”; in [7] (setting [14]) it was “only 1,25(OH)2D3 induced CAMP expression significantly”; in experiment [4] (NB4, 5×10^−7 M, 1-5 days), “No induction was observed”; in experiment [8] (HL60, 5×10^−7 M, 1-5 days), “No induction was observed”.
As to `C[C@@H]1C[C@@H]([C@H](O)CC2CC(=O)NC(=O)C2)C(=O)[C@@H](C)C1` [CHX, cyclohexamide], the “induction of CAMP gene expression by CHX alone” value in [7] (U937, data not shown) is reported as “did not induce CAMP gene expression”.
In the case of `C[C@]12CCC(=O)C[C@@H]1CC[C@@H]1[C@@H]2CC[C@]2(C)[C@@H](O)CC[C@@H]12` [DHT, dihydrotestosterone], the “induction of CAMP expression” value in [7] was “only 1,25(OH)2D3 induced CAMP expression significantly”.
Consider `C=C1/C(=C\C=C2/CCC[C@]3(C)[C@@H]([C@H](C)/C=C/C=C/C(O)(CC)CC)CC[C@@H]23)C[C@@H](O)C[C@@H]1O` [EB1089, 1,25-dihydroxy-22,24-diene, 24,26,27-trihomo], for which the “induction of CAMP (hCAP18) mRNA expression by Vitamin D3 analogs” value (“induction of CAMP … by Vitamin D3 analogs” for short) is “strongly induced CAMP gene expression” in experiment [7] (Northern blot) and “Induction of hCAP18 mRNA expression was observed; also recorded: Induction of CAMP mRNA expression was observed” in experiment [7] (Northern blot, listed as EB 1089).
`C=C1/C(=C\C=C2/CCC[C@]3(C)[C@@H]([C@@H](C)OCCCC(O)(CC)CC)CC[C@@H]23)C[C@@H](O)C[C@@H]1O` [KH1060, 20-epi-22oxa-24a,26a,27a-tri-homo-1,25(OH)2D3]: in experiment [7] (Northern blot), the “induction of CAMP … by Vitamin D3 analogs” value is “strongly induced CAMP gene expression; also recorded: Induction of hCAP18 mRNA expression was observed; also recorded: Induction of CAMP mRNA expression was observed”.
As for `CCCCCCCCCCCCCC(=O)O[C@@H]1[C@@H](C)[C@@]2(O)[C@@H](C=C(CO)C[C@]3(O)C(=O)C(C)=C[C@@H]23)[C@@H]2C(C)(C)[C@]12OC(C)=O` [PMA], the “induction of hCAP18 expression” value in [9] is on record as “not by pro-inflammatory mediators”.
On to `CCCCCCCCCCCCCC(=O)O[C@@H]1[C@@H](C)[C@@]2(O)[C@@H](C=C(CO)C[C@]3(O)C(=O)C(C)=C[C@@H]23)[C@@H]2C(C)(C)[C@]12OC(C)=O` [TPA], for which the “macrophage-like differentiation (induction of CD11b)” value in experiment [10] and in [3] was “promoted macrophage-like differentiation” throughout. Moreover, the “induction of CAMP expression” value in experiment [7] (setting [14]) is “only 1,25(OH)2D3 induced CAMP expression significantly”. The “induction of CAMP mRNA” value was “not TPA” in experiment [7] (U937, 1,25[OH]2D3 1×10^−7 M or TPA 5 ng/ml, 1, 3 or 5 days, Northern blot) and “not TPA” in experiment [8] (HL-60, 1,25[OH]2D3 1×10^−7 M or TPA 5 ng/ml, 1, 3 or 5 days, Northern blot).
Regarding `C=C1/C(=C\C=C2/CCC[C@]3(C)[C@@H]([C@H](C)/C=C/C[C@@](C)(O)CO)CC[C@@H]23)C[C@@H](O)C[C@@H]1O` [compound I, 1,25R,26-(OH)3-22-ene-D3], the “CRAMP expression in bone marrow compared with a vehicle-treated mouse” value in experiment [11] was “did not significantly alter CRAMP expression”. Moreover, the “induction of CAMP … by Vitamin D3 analogs” value in experiment [7] (Northern blot) is “strongly induced CAMP gene expression; also recorded: Induction of hCAP18 mRNA expression was observed; also recorded: Induction of CAMP mRNA expression was observed”.
Consider GM-CSF: growth factor, for which the “induction of CAMP expression” value in [7] (setting [14]) was “only 1,25(OH)2D3 induced CAMP expression significantly”.
On to IL-1β: proinflammatory cytokine, for which, in [12], the “induction of CAMP expression” value was “induced CAMP expression”.
Consider IL-6: cytokine, for which the “induction of hCAP18 expression” value in [9] is on record as “not by pro-inflammatory mediators”. The “induction of CAMP expression” value was “did not” in experiment [12] and “only 1,25(OH)2D3 induced CAMP expression significantly” in experiment [7] (setting [14]).
Turning to IL-8: cytokine, the “induction of CAMP expression” value in experiment [12] is “did not”.
Consider INFγ: inflammatory factor, for which the “induction of hCAP18 expression” value in experiment [9] is “not by pro-inflammatory mediators”. Further, the entries for the “induction of CAMP expression” value in experiment [12] and in [7] (setting [14]) were “did not” and “only 1,25(OH)2D3 induced CAMP expression significantly”, respectively.
For TNFα, in [9], the “induction of hCAP18 expression” value is listed as “not by pro-inflammatory mediators”. The “induction of CAMP expression” value is reported as “did not” in experiment [12] and “only 1,25(OH)2D3 induced CAMP expression significantly” in experiment [7] (setting [14]).
As to “insulin-like growth factor (IGF)-1: growth factor that is important in wound healing”, the “induction of CAMP mRNA and protein” value in experiment [13] was “induce both the CAMP mRNA and protein”.

B1: G-CSF: growth factor (protein, UniProt P09919 31-207, looked up)
Granulocyte …: TPLGPASSLPQSFLLKCLEQVRKIQGDGAALQEKLVSECATYKLCHPEELVLLGHSLGIPWAPLSSCPSQALQLAGCLSQLHSGLFLYQGLLQALEGISPELGPTLDTLQLDVADFATTIWQQMEELGMAPALQPTQGAMPAFASAFQRRAGGVLVASHLQSFLEVSYRVLRHLAQP
On to B1, for which the “induction of CAMP expression” value in [7] (setting [14]) is given as “only 1,25(OH)2D3 induced CAMP expression significantly”.

B2: I1-4: cytokine, probably IL-4 (protein, UniProt P05112 25-153, looked up)
Interleukin-4: HKCDITLQEIIKTLNSLTEQKTLCTELTVTDIFAASKNTTEKETFCRAATVLRQFYSHHEKDTRCLGATAQQFHRHKQLIRFLKRLDRNLWGLAGLNSCPVKEANQSTLENFLERLKTIMREKYSKCSS
Turning to B2, the “induction of CAMP expression” value in experiment [12] is listed as “did not”.

B3: IL-10: cytokine (protein, UniProt P22301 19-178, looked up)
Interleukin-10: SPGQGTQSENSCTHFPGNLPNMLRDLRDAFSRVKTFFQMKDQLDNLLLKESLLEDFKGYLGCQALSEMIQFYLEEVMPQAENQDPDIKAHVNSLGENLKTLRLRLRRCHRFLPCENKSKAVEQVKNAFNKLQEKGIYKAMSEFDIFINYIEAYMTMKIRN
Consider B3, for which the “induction of CAMP expression” value in experiment [12] is listed as “did not”.

B4: IL-1α: pro-inflammatory mediator (protein, UniProt P01583 113-271, looked up)
Interleukin-1 alpha: SAPFSFLSNVKYNFMRIIKYEFILNDALNQSIIRANDQYLTAAALHNLDEAVKFDMGAYKSSKDDAKITVILRISKTQLYVTAQDEDQPVLLKEMPEIPKTITGSETNLLFFWETHGTKNYFTSVAHPNLFIATKQDYWVCLAGGPPSITDFQILENQA
Turning to B4, in [9], the “induction of hCAP18 expression” value is “not by pro-inflammatory mediators”.
